Assay results: PMC7450057, “Enhancing intracellular accumulation and target engagement of PROTACs with reversible covalent chemistry” (Nature Communications, 2020)
Values joined by “and” are separate entries in the source; they are usually repeats but may differ in a detail not shown here. Identical values can stand only once. Like-named read-outs stand apart in the source and are kept apart here.

How the values were obtained:
BTK-NanoLuc fusion = molecular target: T1, BTK-NanoLuc fusion (Homo sapiens, UniProt Q06187); assay: NanoBRET BTK in-cell target engagement assay; format: cell-based; conditions: for K′P,D (relative intracellular accumulation coefficient): Kd (BTK)/IC50,TE (BTK)
T1 construct: host or cells: HEK 293T/17
In short: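 Tracer-displacement IC50 derived from background-corrected BRET ratio (450 nm donor, 610 nm acceptor) in live HEK293/T17 cells transfected with BTK-NanoLuc. Cells were exposed for 2 h at 37 °C to 1.0 µM tracer plus 5-fold serial dilutions of compound from 10 µM.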

BTK [1] = molecular target: BTK (Homo sapiens, UniProt Q06187); assay: In vitro BTK kinase assay (PhosphoSens); format: biochemical; design: purchased SignalChem B10-10H-10; conditions: for IC50: AssayQuant BTK assay kit, 2.5 nM BTK, 1 mM ATP, duplicates, read-out: BTK inhibition IC50; for activity at 2.56 pM / activity at 12.8 pM / activity at 64 pM / activity at 0.00032 µM / activity at 0.0016 µM / activity at 0.008 µM / activity at 0.04 µM / activity at 0.2 µM / activity at 1 µM: Supplementary Figure 5, replicates, read-out: Inhibition(%); for activity at 2.56 pM: drug concentration 2.56 pM; for activity at 12.8 pM: drug concentration 12.8 pM; for activity at 64 pM: drug concentration 64 pM; for activity at 0.00032 µM: drug concentration 320 pM; for activity at 0.0016 µM: drug concentration 1600 pM; for activity at 0.008 µM: drug concentration 8000 pM; for activity at 0.04 µM: drug concentration 40000 pM; for activity at 0.2 µM: drug concentration 200000 pM; for activity at 1 µM: drug concentration 1000000 pM
Procedure: BTK kinase activity inhibition IC50 was measured by PhosphoSens® Kinase Assay Kit (Assay Quant Technologies Inc., Cat.# CSKS-AQT0101K). […] Active recombinant BTK was purchased from SignalChem (Cat.# B10-10H-10). All the drugs (3 warhead control and 4 PROTACs) were dissolved in DMSO (10 mM). […] To calculate the IC50, subtract the background fluorescence determined with the “no kinase” control for each time point from the total signal to obtain corrected Relative Fluorescence Units (RFU) values. Plot the corrected RFU vs. Time for each inhibitor concentration and determine the initial reaction rates (slope of the linear portion) for each progress curve for each inhibitor concentration. Then plot velocity (RFU corrected/minute) vs [inhibitor] and determine the IC50 using a 4-parameter logistic fit.

MOLM-14 cells = assay: AlamarBlue cell viability assay, MOLM-14; conditions: for MOLM-14 Cell Viability%: Figure 2f, 5 replicates; for IC50: Homo sapiens, MOLM-14, 72 h, read-out: Cell viability IC50, MOLM-14 cells, 72 h, Alamar Blue; for Cell viability, MOML-14: Supplementary Figure 7, replicates
Procedure: The IC50 was calculated using GraphPad Prism software with a four-parameter dose-response curve fit.

BTK [2] = molecular target: BTK (Mus musculus, UniProt P35991); assay: BTK degradation in mouse B-cell lymphoma cell line derived from Eu-Myc mice; format: cell-based; design: endogenous in cells; host or cells: B cell lymphoma cell line derived from Eu-Myc mice; conditions: Supplementary Figure 10, replicates, DMSO about 100
Procedure: MOLM-14 cell line was obtained from Dr. Conneely at Baylor College of Medicine, and the Mino cells were purchased from the American Type Culture Collection (ATCC, Cat. No. CRL-3000). Both cell lines were cultured in RPMI 1640 medium (Thermo Fisher Scientific, Cat. No. MT10040CV) supplemented with 10% fetal bovine serum (GE Healthcare, Cat. No. SH30071.03) and 1% Pen/Strep (Thermo Fisher Scientific, Cat. No. 15140163). The wild-type and C481S BTK XLA cell lines were gifts from Dr. Woyach at The Ohio State University and were cultured in RPMI 1640 medium with 15% fetal bovine serum, 1% Pen/Strep, and 1.0 µg/ml puromycin (Thermo Fisher Scientific, Cat. No. A1113803). HEK 293T/17 cells were purchased from ATCC (Cat. No. CRL-11268) were maintained in DMEM (Thermo Fisher Scientific, Cat. No. MT10013CV) with 10% fetal bovine serum and 1% Pen-Strep. The B cell lymphoma cell line derived from Eu-Myc mice was a gift from Dr. Yulin Li at Houston Methodist Research Institute and cultured in RPMI 1640 medium supplemented with 15% (v/v) fetal bovine serum (FBS), 100 U/mL penicillin, 100 μg/mL streptomycin, and 0.05 mM beta-mercaptoethanol and puromycin (1 μg/mL). Cells were grown at 37 °C with 5% CO2.
The collected cells and spleen tissues were lysed in RIPA lysis buffer (50 mM Tris-HCl, pH 7.4, 150 mM NaCl, 1% NP-40, 0.5% sodium deoxycholate, 0.1% SDS) supplemented with Halt™ Protease and Phosphatase Inhibitor Cocktail (Thermo Fisher Scientific, Cat. No. PI78440) immediately before use. Lysates were centrifuged at 15,000 × g for 10 min at 4 °C and the supernatant was quantified for total protein concentration using the Pierce BCA Protein Assay (Thermo Fisher Scientific, Cat. No. 23225). Thirty micrograms of protein were loaded onto sodium dodecyl sulfate−polyacrylamide gel for electrophoresis (Bio-Rad) and transferred onto PVDF membranes (Millipore, Cat. No. IPVH00010). […] Imaging was performed using the ECL Prime chemiluminescent western blot detection reagents (GE Healthcare, Cat. No. RPN2232) by visualization of the blots to X-Ray film or with an Imager (Kindle Biosciences, Cat. No. D1001). All western blots were subsequently processed and quantified with Imager software. Protein level was normalized to β-actin or GAPDH loading controls.

Sequence of BTK (Mus musculus, UniProt P35991) (P35991 whole entry): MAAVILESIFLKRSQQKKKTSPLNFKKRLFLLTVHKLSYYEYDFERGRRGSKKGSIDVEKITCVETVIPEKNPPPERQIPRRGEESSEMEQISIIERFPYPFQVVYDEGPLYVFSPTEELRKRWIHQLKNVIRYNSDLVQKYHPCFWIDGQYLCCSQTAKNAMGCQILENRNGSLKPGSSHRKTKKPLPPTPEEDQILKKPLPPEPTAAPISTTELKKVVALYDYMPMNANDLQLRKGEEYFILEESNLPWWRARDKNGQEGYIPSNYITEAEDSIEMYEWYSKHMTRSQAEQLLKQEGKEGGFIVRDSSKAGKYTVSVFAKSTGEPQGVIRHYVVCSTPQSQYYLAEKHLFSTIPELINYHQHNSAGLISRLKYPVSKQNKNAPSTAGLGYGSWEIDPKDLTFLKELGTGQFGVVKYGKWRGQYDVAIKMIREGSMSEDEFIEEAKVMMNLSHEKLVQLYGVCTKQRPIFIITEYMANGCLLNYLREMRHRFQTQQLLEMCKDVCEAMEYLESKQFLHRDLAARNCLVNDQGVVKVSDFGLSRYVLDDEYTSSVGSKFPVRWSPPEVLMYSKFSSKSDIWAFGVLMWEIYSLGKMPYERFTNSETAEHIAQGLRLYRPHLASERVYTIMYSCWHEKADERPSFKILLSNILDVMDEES
Sequence of BTK (Homo sapiens, UniProt Q06187) (Q06187 whole entry): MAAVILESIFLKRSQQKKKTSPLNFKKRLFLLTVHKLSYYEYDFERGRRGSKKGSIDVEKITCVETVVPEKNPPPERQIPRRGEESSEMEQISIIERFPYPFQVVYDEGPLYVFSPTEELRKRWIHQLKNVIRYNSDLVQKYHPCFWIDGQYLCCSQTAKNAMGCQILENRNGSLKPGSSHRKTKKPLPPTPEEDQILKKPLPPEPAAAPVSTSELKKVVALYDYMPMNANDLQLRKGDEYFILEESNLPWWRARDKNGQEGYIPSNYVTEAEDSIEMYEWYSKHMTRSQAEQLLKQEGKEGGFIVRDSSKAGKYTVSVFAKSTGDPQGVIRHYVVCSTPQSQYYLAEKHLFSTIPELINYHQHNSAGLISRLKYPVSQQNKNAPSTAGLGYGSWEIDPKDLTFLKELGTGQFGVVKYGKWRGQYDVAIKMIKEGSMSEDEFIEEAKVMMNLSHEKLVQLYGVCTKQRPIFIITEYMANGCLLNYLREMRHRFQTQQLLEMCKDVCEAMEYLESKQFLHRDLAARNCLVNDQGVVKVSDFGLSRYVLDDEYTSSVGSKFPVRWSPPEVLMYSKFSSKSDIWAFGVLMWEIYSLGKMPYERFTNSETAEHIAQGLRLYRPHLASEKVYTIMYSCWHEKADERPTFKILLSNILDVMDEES
T1 sequence (Q06187 whole entry, the tested form may be a part): as the sequence (Q06187 whole entry) above

CN(CCCNC(=O)CNc1cccc2c1C(=O)N(C1CCC(=O)NC1=O)C2=O)CCCC(=O)N1CCCC(n2nc(-c3ccc(Oc4ccccc4)cc3)c3c(N)ncnc32)C1 (stereo not drawn) [RNC-1]
NanoBRET(%) (BTK-NanoLuc fusion; Figure 3c, 1.00E-05 M, triplicates): 19.811% and 15.5465% and 15.3581%
NanoBRET(%) (BTK-NanoLuc fusion; Figure 3c, 1.60E-08 M, triplicates): 97.712% and 94.5586% and 94.4887%
NanoBRET(%) (BTK-NanoLuc fusion; Figure 3c, 2.00E-06 M, triplicates): 33.1128% and 33.4469% and 31.5012%
NanoBRET(%) (BTK-NanoLuc fusion; Figure 3c, 3.20E-09 M, triplicates): 87.6339% and 98.6398% and 114.053%
NanoBRET(%) (BTK-NanoLuc fusion; Figure 3c, 4.00E-07 M, triplicates): 69.4314% and 86.9635% and 77.822%
NanoBRET(%) (BTK-NanoLuc fusion; Figure 3c, 8.00E-08 M, triplicates): 100.734% and 107.362% and 104.968%
IC50 (BTK-NanoLuc fusion; HEK-293 cells, BTK tracer 1.0 µM, Table 1 / Fig. 3c, triplicates, read-out: BTK TE IC50,TE): 1270 nM
K′P,D (relative intracellular accumulation coefficient) (BTK-NanoLuc fusion): 3.7 × 10^−3
intracellular accumulation of RC-1 relative to the compound (BTK-NanoLuc fusion; from K′P,D values, BTK (Table 1)): 40 folds
IC50 (BTK [1]): 21.2 nM
activity at 2.56 pM (BTK [1]): 87.5%
activity at 12.8 pM (BTK [1]): 93%
activity at 64 pM (BTK [1]): 88%
activity at 0.00032 µM (BTK [1]): 96.2%
activity at 0.0016 µM (BTK [1]): 83.6%
activity at 0.008 µM (BTK [1]): 71.7%
activity at 0.04 µM (BTK [1]): 32.2%
activity at 0.2 µM (BTK [1]): 14%
activity at 1 µM (BTK [1]): 4.94%
diminished BTK inhibitory activity compared with corresponding warhead control (BTK [1]; ratio of IC50 values): < 3 fold
MOLM-14 Cell Viability% (MOLM-14 cells; 1.00E-05 M): 22.564% and 21.8706% and 28.4317% and 19.6302% and 20.5903%
MOLM-14 Cell Viability% (MOLM-14 cells; 1.60E-08 M): 88.2112% and 80.7255% and 82.3435% and 80.6899% and 90.8606%
MOLM-14 Cell Viability% (MOLM-14 cells; 2.00E-06 M): 59.495% and 70.377% and 65.6472% and 60.4907% and 61.7354%
MOLM-14 Cell Viability% (MOLM-14 cells; 3.20E-09 M): 88.958% and 75.6935% and 86.6821% and 75.5334% and 84.3883%
MOLM-14 Cell Viability% (MOLM-14 cells; 4.00E-07 M): 78.8051% and 78.5206% and 78.325% and 79.1785% and 78.2717%
MOLM-14 Cell Viability% (MOLM-14 cells; 6.40E-10 M): 75.0356% and 77.596% and 87.8023% and 83.7127% and 80.761%
MOLM-14 Cell Viability% (MOLM-14 cells; 8.00E-08 M): 68.7056% and 84.1394% and 79.712% and 75.2134% and 77.276%
IC50 (MOLM-14 cells): 4100 nM
BTK quantification (anti-BTK / anti-β-actin) (BTK [2]; 8 nM): 97.1575 and 95.3789
BTK quantification (anti-BTK / anti-β-actin) (BTK [2]; 40 nM): 69.0679 and 73.2452
BTK quantification (anti-BTK / anti-β-actin) (BTK [2]; 200 nM): 33.5661 and 27.9942

CN1C(=O)CCC(N2C(=O)c3cccc(NCC(=O)NCCCN(C)C(C)(C)C=C(C#N)C(=O)N4CCCC(n5nc(-c6ccc(Oc7ccccc7)cc6)c6c(N)ncnc65)C4)c3C2=O)C1=O (stereo not drawn) [RC-1-Me]
IC50 (BTK [1]): 6.8 nM
activity at 2.56 pM (BTK [1]): 108%
activity at 12.8 pM (BTK [1]): 101%
activity at 64 pM (BTK [1]): 109%
activity at 0.00032 µM (BTK [1]): 106%
activity at 0.0016 µM (BTK [1]): 88.3%
activity at 0.008 µM (BTK [1]): 48.8%
activity at 0.04 µM (BTK [1]): 10.5%
activity at 0.2 µM (BTK [1]): 3.98%
activity at 1 µM (BTK [1]): 1.27%
IC50 (MOLM-14 cells): 210 nM
Cell viability, MOML-14 (MOLM-14 cells; drug concentration 1.00E-05 M): 5.925 and 2.684 and 5.158 and 0.5402 and 1.464
Cell viability, MOML-14 (MOLM-14 cells; drug concentration 1.60E-08 M): 108.445 and 78.2274 and 85.8427 and 61.7071 and 70.0718
Cell viability, MOML-14 (MOLM-14 cells; drug concentration 2.00E-06 M): 12.3031 and 8.922 and 10.0028 and 5.594 and 8.609
Cell viability, MOML-14 (MOLM-14 cells; drug concentration 3.20E-09 M): 105.5 and 93.5975 and 67.3881 and 77.0075 and 77.9834
Cell viability, MOML-14 (MOLM-14 cells; drug concentration 4.00E-07 M): 48.707 and 38.2511 and 45.3611 and 24.9024 and 42.2243
Cell viability, MOML-14 (MOLM-14 cells; drug concentration 6.40E-10 M): 105.5 and 122.177 and 88.0908 and 73.4874 and 67.8761
Cell viability, MOML-14 (MOLM-14 cells; drug concentration 8.00E-08 M): 81.0853 and 58.6749 and 68.6428 and 51.3383 and 65.994

CC(C)(C)C=C(C#N)C(=O)N1CCCC(n2nc(-c3ccc(Oc4ccccc4)cc3)c3c(N)ncnc32)C1 (stereo not drawn) [RC-Ctrl]
NanoBRET(%) (BTK-NanoLuc fusion; Figure 3d, 1.00E-05 M, triplicates): 3.378% and 4.061% and 7.763%
NanoBRET(%) (BTK-NanoLuc fusion; Figure 3d, 1.60E-08 M, triplicates): 68.6994% and 58.5265% and 79.8426%
NanoBRET(%) (BTK-NanoLuc fusion; Figure 3d, 2.00E-06 M, triplicates): 7.973% and 4.415% and 10.8959%
NanoBRET(%) (BTK-NanoLuc fusion; Figure 3d, 3.20E-09 M, triplicates): 72.0977% and 81.5236% and 73.9704%
NanoBRET(%) (BTK-NanoLuc fusion; Figure 3d, 8.00E-08 M, triplicates): 48.5638% and 40.5056% and 47.7559%
K′P,D (relative intracellular accumulation coefficient) (BTK-NanoLuc fusion): 1.5 × 10^−1
IC50 (BTK-NanoLuc fusion; experiment of Fig. 3d, read-out: BTK target engagement IC50): 47 nM
IC50 (BTK [1]): 2.2 nM
activity at 2.56 pM (BTK [1]): 108%
activity at 12.8 pM (BTK [1]): 105%
activity at 64 pM (BTK [1]): 109%
activity at 0.00032 µM (BTK [1]): 96.8%
activity at 0.0016 µM (BTK [1]): 64.1%
activity at 0.008 µM (BTK [1]): 25.5%
activity at 0.04 µM (BTK [1]): 4.68%
activity at 0.2 µM (BTK [1]): 1.89%
activity at 1 µM (BTK [1]): 2.91%
reduction of BTK inhibition activity compared with IRC-Ctrl (BTK [1]; ratio of IC50 values): 7 folds
IC50 (MOLM-14 cells): 500 nM
Cell viability, MOML-14 (MOLM-14 cells; drug concentration 1.00E-05 M): 7.067 and 3.271 and 5.661 and 1.305 and 2.339
Cell viability, MOML-14 (MOLM-14 cells; drug concentration 1.60E-08 M): 100.163 and 86.7229 and 69.3512 and 65.5718 and 65.0973
Cell viability, MOML-14 (MOLM-14 cells; drug concentration 2.00E-06 M): 19.6597 and 13.6262 and 19.5071 and 12.6093 and 12.5585
Cell viability, MOML-14 (MOLM-14 cells; drug concentration 3.20E-09 M): 99.2136 and 96.6714 and 77.7744 and 79.5709 and 66.0125
Cell viability, MOML-14 (MOLM-14 cells; drug concentration 4.00E-07 M): 73.5374 and 63.2161 and 57.9961 and 48.3526 and 44.7427
Cell viability, MOML-14 (MOLM-14 cells; drug concentration 6.40E-10 M): 106.654 and 105.722 and 82.8418 and 81.5368 and 73.0798
Cell viability, MOML-14 (MOLM-14 cells; drug concentration 8.00E-08 M): 93.8411 and 82.0283 and 73.1815 and 65.3176 and 60.962
